Experimental data published in publication PMC9276671, “A first-in-human Phase I dose-escalation trial of the novel therapeutic peptide, ALM201, demonstrates a favourable safety profile in unselected patients with ovarian cancer and other advanced solid tumours” (British Journal of Cancer, 2022).
No end group written: not given here.

Assay: Plasma pharmacokinetics of ALM201 in Phase I patients (validated LC-MS/MS, Phoenix WinNonlin)
Details: human, plasma, sc; for Tmax: median; for Tmax / AUC(0-t) / Cmax: plasma LC-MS/MS; for AUC(0-t): AUC0-t; for AUC(0-t) / Cmax: Gmean (CV); for level at 0.25 h / level at 0.75 h / level at 1.5 h / level at 2 h / level at 3 h / level at 4 h / level at 5 h / level at 6 h / level at 0.5 h / level at 1 h / level at 3.5 h: Plasma concentration, geometric mean (CV%), LC-MS/MS; for level at 0.25 h: day 1 cycle 1, 0.25 h after dosing; for level at 0.75 h: day 1 cycle 1, 0.75 h after dosing; for level at 3 h: day 1 cycle 1, 3 h after dosing; for level at 4 h: day 1 cycle 1, 4 h after dosing; for level at 6 h: day 1 cycle 1, 6 h after dosing
[1] = 100 mg, 100 mg SC, day 1 cycle 1, n = 4
[2] = 100 mg, 100 mg SC, day 3 cycle 1, n = 4
[3] = 100 mg, 100 mg SC, day 18 cycle 1, n = 2, CV not calculated
[4] = 100 mg, 100 mg SC, day 18 cycle 2, n = 1
[5] = 160 mg, 160 mg SC, day 1 cycle 1, n = 3
[6] = 160 mg, 160 mg SC, day 3 cycle 1, n = 3
[7] = 160 mg, 160 mg SC, day 18 cycle 1, n = 3
[8] = 160 mg, 160 mg SC, day 18 cycle 2, n = 1
[9] = 200 mg, 200 mg SC, day 1 cycle 1, n = 4
[10] = 200 mg, 200 mg SC, day 3 cycle 1, n = 4
[11] = 200 mg, 200 mg SC, day 18 cycle 1, n = 3
[12] = 200 mg, 200 mg SC, day 18 cycle 4, n = 2, CV not calculated

IRQQPRDPPTETLELEVSPDPAS [ALM201]
Tmax (80 mg, 80 mg SC, day 18 cycle 2, n = 1): 3.5 h
AUC(0-t) [1]: 6280 ng·h/mL
AUC(0-t) [2]: 8870 ng·h/mL
AUC(0-t) [3]: 8100 ng·h/mL
AUC(0-t) [4]: 5930 ng·h/mL
Cmax [1]: 1810 ng/mL
Cmax [2]: 2750 ng/mL
Cmax [3]: 2330 ng/mL
Cmax [4]: 1790 ng/mL
level at 0.25 h (100 mg, 100 mg SC, n = 4): 492 ng/mL
level at 0.75 h (100 mg, 100 mg SC, n = 4): 1220 ng/mL
level at 1.5 h (100 mg, 100 mg SC, day 1 cycle 1, 1.5 h after dosing, n = 4): 1810 ng/mL
level at 2 h (100 mg, 100 mg SC, day 1 cycle 1, 2 h after dosing, n = 4): 1590 ng/mL
level at 3 h (100 mg, 100 mg SC, n = 4): 1150 ng/mL
level at 4 h (100 mg, 100 mg SC, n = 4): 922 ng/mL
level at 5 h (100 mg, 100 mg SC, day 1 cycle 1, 5 h after dosing, n = 4, NQ value substituted with 100 ng/mL): 664 ng/mL
level at 6 h (100 mg, 100 mg SC, n = 4, NQ value substituted with 100 ng/mL): 560 ng/mL
level at 0.5 h (100 mg, 100 mg SC, day 3 cycle 1, 0.5 h after dosing, n = 4): 1730 ng/mL
level at 1 h (100 mg, 100 mg SC, day 3 cycle 1, 1 h after dosing, n = 4): 2100 ng/mL
level at 1.5 h (100 mg, 100 mg SC, day 3 cycle 1, 1.5 h after dosing, n = 4): 2530 ng/mL
level at 2 h (100 mg, 100 mg SC, day 3 cycle 1, 2 h after dosing, n = 4): 2400 ng/mL
level at 3.5 h (100 mg, 100 mg SC, day 3 cycle 1, 3.5 h after dosing, n = 4): 1690 ng/mL
level at 5 h (100 mg, 100 mg SC, day 3 cycle 1, 5 h after dosing, n = 4): 928 ng/mL
level at 0.5 h (100 mg, 100 mg SC, day 18 cycle 1, 0.5 h after dosing, n = 2): 1890 ng/mL
level at 1 h (100 mg, 100 mg SC, day 18 cycle 1, 1 h after dosing, n = 2): 1840 ng/mL
level at 1.5 h (100 mg, 100 mg SC, day 18 cycle 1, 1.5 h after dosing, n = 2): 2210 ng/mL
level at 2 h (100 mg, 100 mg SC, day 18 cycle 1, 2 h after dosing, n = 2): 2130 ng/mL
level at 3.5 h (100 mg, 100 mg SC, day 18 cycle 1, 3.5 h after dosing, n = 2): 1490 ng/mL
level at 5 h (100 mg, 100 mg SC, day 18 cycle 1, 5 h after dosing, n = 2): 961 ng/mL
level at 0.5 h (100 mg, 100 mg SC, day 18 cycle 2, 0.5 h after dosing, n = 1): 1060 ng/mL
level at 1 h (100 mg, 100 mg SC, day 18 cycle 2, 1 h after dosing, n = 1): 1790 ng/mL
level at 1.5 h (100 mg, 100 mg SC, day 18 cycle 2, 1.5 h after dosing, n = 1): 1710 ng/mL
level at 2 h (100 mg, 100 mg SC, day 18 cycle 2, 2 h after dosing, n = 1): 1570 ng/mL
level at 3.5 h (100 mg, 100 mg SC, day 18 cycle 2, 3.5 h after dosing, n = 1): 1180 ng/mL
Tmax [1]: 1.5 h
Tmax [2]: 1.61 h
Tmax (100 mg, 100 mg SC, day 18 cycle 1, n = 2): 1.9 h
Tmax [4]: 1.02 h
AUC(0-t) [5]: 6510 ng·h/mL
AUC(0-t) [6]: 5100 ng·h/mL
AUC(0-t) [7]: 4930 ng·h/mL
AUC(0-t) [8]: 5710 ng·h/mL
Cmax [5]: 1990 ng/mL
Cmax [6]: 1490 ng/mL
Cmax [7]: 1350 ng/mL
Cmax [8]: 1870 ng/mL
level at 0.25 h (160 mg, 160 mg SC, n = 3): 833 ng/mL
level at 0.75 h (160 mg, 160 mg SC, n = 3): 1570 ng/mL
level at 1.5 h (160 mg, 160 mg SC, day 1 cycle 1, 1.5 h after dosing, n = 3): 1670 ng/mL
level at 2 h (160 mg, 160 mg SC, day 1 cycle 1, 2 h after dosing, n = 3): 1480 ng/mL
level at 3 h (160 mg, 160 mg SC, n = 3): 1280 ng/mL
level at 4 h (160 mg, 160 mg SC, n = 3): 866 ng/mL
level at 5 h (160 mg, 160 mg SC, day 1 cycle 1, 5 h after dosing, n = 3): 510 ng/mL
level at 6 h (160 mg, 160 mg SC, n = 3): 283 ng/mL
level at 0.5 h (160 mg, 160 mg SC, day 3 cycle 1, 0.5 h after dosing, n = 3): 956 ng/mL
level at 1 h (160 mg, 160 mg SC, day 3 cycle 1, 1 h after dosing, n = 3): 1270 ng/mL
level at 1.5 h (160 mg, 160 mg SC, day 3 cycle 1, 1.5 h after dosing, n = 3): 1460 ng/mL
level at 2 h (160 mg, 160 mg SC, day 3 cycle 1, 2 h after dosing, n = 3): 1350 ng/mL
level at 3.5 h (160 mg, 160 mg SC, day 3 cycle 1, 3.5 h after dosing, n = 3): 926 ng/mL
level at 5 h (160 mg, 160 mg SC, day 3 cycle 1, 5 h after dosing, n = 3): 613 ng/mL
level at 0.5 h (160 mg, 160 mg SC, day 18 cycle 1, 0.5 h after dosing, n = 3): 940 ng/mL
level at 1 h (160 mg, 160 mg SC, day 18 cycle 1, 1 h after dosing, n = 3): 1150 ng/mL
level at 1.5 h (160 mg, 160 mg SC, day 18 cycle 1, 1.5 h after dosing, n = 3): 1280 ng/mL
level at 2 h (160 mg, 160 mg SC, day 18 cycle 1, 2 h after dosing, n = 3): 1200 ng/mL
level at 3.5 h (160 mg, 160 mg SC, day 18 cycle 1, 3.5 h after dosing, n = 3): 995 ng/mL
level at 5 h (160 mg, 160 mg SC, day 18 cycle 1, 5 h after dosing, n = 3): 577 ng/mL
level at 0.5 h (160 mg, 160 mg SC, day 18 cycle 2, 0.5 h after dosing, n = 1): 1380 ng/mL
level at 1 h (160 mg, 160 mg SC, day 18 cycle 2, 1 h after dosing, n = 1): 1380 ng/mL
level at 1.5 h (160 mg, 160 mg SC, day 18 cycle 2, 1.5 h after dosing, n = 1): 1650 ng/mL
level at 2 h (160 mg, 160 mg SC, day 18 cycle 2, 2 h after dosing, n = 1): 1870 ng/mL
level at 3.5 h (160 mg, 160 mg SC, day 18 cycle 2, 3.5 h after dosing, n = 1): 870 ng/mL
Tmax [5]: 1.52 h
Tmax [8]: 2 h
AUC(0-t) [9]: 5860 ng·h/mL
AUC(0-t) [10]: 6630 ng·h/mL
AUC(0-t) [11]: 5570 ng·h/mL
AUC(0-t) [12]: 6110 ng·h/mL
Cmax [9]: 1490 ng/mL
Cmax [10]: 1620 ng/mL
Cmax [11]: 1670 ng/mL
Cmax (200 mg, 200 mg SC, day 18 cycle 2, n = 2, CV not calculated): 1890 ng/mL
Cmax [12]: 1680 ng/mL
level at 0.25 h (200 mg, 200 mg SC, n = 4): 479 ng/mL
level at 0.75 h (200 mg, 200 mg SC, n = 4): 1040 ng/mL
level at 1.5 h (200 mg, 200 mg SC, day 1 cycle 1, 1.5 h after dosing, n = 4): 1240 ng/mL
level at 2 h (200 mg, 200 mg SC, day 1 cycle 1, 2 h after dosing, n = 4): 1370 ng/mL
level at 3 h (200 mg, 200 mg SC, n = 4): 1360 ng/mL
level at 4 h (200 mg, 200 mg SC, n = 4): 1050 ng/mL
level at 5 h (200 mg, 200 mg SC, day 1 cycle 1, 5 h after dosing, n = 4): 620 ng/mL
